In patent US20080114055A1, “Thioxanthone Compounds to Reverse Weight Loss” (ZOLTAN LABORATORIES LLC, priority 2006, published 2008):

Tests used:
Water solubility = format: physicochemical; conditions: at the concentration used in vivo
T47D human breast tumor = experiment: T47D human estrogen receptor positive breast cancer model: body, total and tumor weight; format: in vivo, mice; conditions: for Body weight: total minus tumor weight
From the text: Tumors were developed in a homozygous line of C.B.-171 cr scid/scid adult female mice kept at specified pathogen free (SPF) hygienic levels. Suspensions of HL-60 human leukemia cells (about 1,500,000 cells), or approximately 0.1 cm^3 volume of tumor tissue derived from HT-168 human melanoma, PC-3 human prostate adenocarcinoma, or T47D human breast carcinoma were implanted subcutaneously to develop the tumors. After 12-18 days when the tumor-bearing mice were first treated, the size of the tumors was in the 0.2-0.4 cm^3 range. CCcompound1 was dissolved in physiological (0.9%) saline (NaCl) and applied subcutaneously in 50 μl volume. Tumor volume was determined by calipers in three dimensions; this technique is well known to one having ordinary skill in the art. Tumor volume was calculated according to the generally accepted formula: V=a^2×b×π/6, where “a” and “b” mean the shortest and longest diameter, respectively, of the measured tumor. Tumor weight was calculated from tumor volume using a 0.7 (tumor weight) : 1 (tumor volume) ratio. Total weight and tumor volume/weight was measured regularly (at least every second day). In all tumor experiments, each treatment group consisted of five animals. Accordingly, all data are the average of five independent determinations (one determination for each animal). T47D human tumors were developed in mice as described above. Treatments with CCcompound1 were started on day 17 after tumor implantation and conducted for five days and then followed by an additional five days with 2 treatment-free days inserted between the 2 series of treatments. The results, shown in TABLE 5, indicate that between day 17 and 28 after tumor implantation, this breast tumor caused about a 2.5-g loss in body weight. […] Thus, in this human breast tumor model, CCcompound1 is a potent anti-cachectic agent and its effects on body weight are accompanied by significant anti-tumor effects.

[1] = system: HL60 human leukemia tumor; experiment: HL60 human leukemia tumor model: body, total and tumor weight; format: in vivo, mice; conditions: for Body weight: total minus tumor weight
From the text: Tumors were developed in a homozygous line of C.B.-171 cr scid/scid adult female mice kept at specified pathogen free (SPF) hygienic levels. Suspensions of HL-60 human leukemia cells (about 1,500,000 cells), or approximately 0.1 cm^3 volume of tumor tissue derived from HT-168 human melanoma, PC-3 human prostate adenocarcinoma, or T47D human breast carcinoma were implanted subcutaneously to develop the tumors. After 12-18 days when the tumor-bearing mice were first treated, the size of the tumors was in the 0.2-0.4 cm^3 range. CCcompound1 was dissolved in physiological (0.9%) saline (NaCl) and applied subcutaneously in 50 μl volume. Tumor volume was determined by calipers in three dimensions; this technique is well known to one having ordinary skill in the art. Tumor volume was calculated according to the generally accepted formula: V=a^2×b×π/6, where “a” and “b” mean the shortest and longest diameter, respectively, of the measured tumor. Tumor weight was calculated from tumor volume using a 0.7 (tumor weight) : 1 (tumor volume) ratio. Total weight and tumor volume/weight was measured regularly (at least every second day). In all tumor experiments, each treatment group consisted of five animals. Accordingly, all data are the average of five independent determinations (one determination for each animal). HL60 human tumors were developed in mice as described above. Treatments with CCcompound1 were started on day 18 after tumor implantation and conducted for the first five days and then for three days with two treatment-free days inserted between the two series of treatments. The results, shown in TABLE 2, indicate that between day 18 and 27 after tumor implantation, the leukemia tumor caused about 4-g loss in body weight.

[2] = 1.0 mg/kg s.c., day 17 (treatment start)
[3] = 2.0 mg/kg s.c., day 17 (treatment start)
[4] = 4.0 mg/kg s.c., day 17 (treatment start)
[5] = 0.5 mg/kg s.c., day 18 (treatment start)
[6] = 1.0 mg/kg s.c., day 18 (treatment start)
[7] = 2.0 mg/kg s.c., day 18 (treatment start)

With `Cc1c(OCC(O)C[N+](C)(C)C)cc2c(=O)c3ccccc3sc2c1C.[Cl-]` (centres unmarked) [CCcompound1, [3-(3,4-Dimethyl-9-oxo-9H-thioxanthen-2-yloxy)-2-hydroxypropyl]trimethyl-ammonium chloride] the Water solubility (Water solubility) was “fully water-soluble”, the Tumor weight (T47D human breast tumor; [2]) was 0.2 g and the Body weight (T47D human breast tumor; [2]) was 26.3 g. The Total weight (T47D human breast tumor; 1.0 mg/kg s.c., day 17 after tumor transplantation (treatment start)) was 26.5 g, the Tumor weight (T47D human breast tumor; 1.0 mg/kg s.c., day 28) was 1.6 g and the Body weight (T47D human breast tumor; 1.0 mg/kg s.c., day 28) was 27.7 g. It also gave a Total weight (T47D human breast tumor; 1.0 mg/kg s.c., day 28 after tumor transplantation) of 29.3 g, a Total weight (T47D human breast tumor; [3]) of 26.9 g and a Tumor weight (T47D human breast tumor; [3]) of 0.2 g. The Body weight (T47D human breast tumor; [3]) was 26.7 g, the Total weight (T47D human breast tumor; 2.0 mg/kg s.c., day 28) was 28.7 g and the Tumor weight (T47D human breast tumor; 2.0 mg/kg s.c., day 28) was 1.5 g. It also gave a Body weight (T47D human breast tumor; 2.0 mg/kg s.c., day 28) of 27.2 g, a Total weight (T47D human breast tumor; [4]) of 27.0 g and a Tumor weight (T47D human breast tumor; [4]) of 0.2 g. The Body weight (T47D human breast tumor; [4]) was 26.8 g, the Total weight (T47D human breast tumor; 4.0 mg/kg s.c., day 28) was 30.9 g and the Tumor weight (T47D human breast tumor; 4.0 mg/kg s.c., day 28) was 1.2 g. The Body weight (T47D human breast tumor; 4.0 mg/kg s.c., day 28) was 29.7 g, the “Effect on body weight loss” value (T47D human breast tumor; 1-mg/kg, between day 17 and 28) was “fully reversed body weight loss” and the Body weight gain (T47D human breast tumor; 4-mg/kg, between day 17 and 28) was 3.1 g. The “Reduction of tumor weight” value (T47D human breast tumor; 4-mg/kg, day 28) was “about 40%”, the Tumor weight [1, 5] was 0.7 g and the Body weight [1, 5] was 25.5 g. For the same compound, the Total weight ([1]; 0.5 mg/kg s.c., day 18 after tumor transplantation (treatment start)) was 26.2 g, the Tumor weight ([1]; 0.5 mg/kg s.c., day 27) was 2.8 g and the Body weight ([1]; 0.5 mg/kg s.c., day 27) was 24.0 g. It also gave a Total weight ([1]; 0.5 mg/kg s.c., day 27 after tumor transplantation) of 26.8 g, a Total weight [1, 6] of 26.2 g and a Tumor weight [1, 6] of 0.4 g. It also gave a Body weight [1, 6] of 25.8 g, a Total weight ([1]; 1.0 mg/kg s.c., day 27) of 30.3 g and a Tumor weight ([1]; 1.0 mg/kg s.c., day 27) of 1.9 g. The Body weight ([1]; 1.0 mg/kg s.c., day 27) was 28.4 g, the Total weight [1, 7] was 27.0 g and the Tumor weight [1, 7] was 0.5 g. It also gave a Body weight [1, 7] of 26.5 g, a Total weight ([1]; 2.0 mg/kg s.c., day 27) of 30.6 g and a Tumor weight ([1]; 2.0 mg/kg s.c., day 27) of 1.9 g. The Body weight ([1]; 2.0 mg/kg s.c., day 27) was 28.7 g, the “Effect on body weight loss” value ([1]; 0.5-mg/kg, between day 18 and 27) was “reduced body weight loss” and the “Effect on body weight” value ([1]; 1-mg/kg, between day 18 and 27) was “gained weight”. For the same compound, the “Effect on body weight” value ([1]; 2-mg/kg, between day 18 and 27) was “gained weight” and the “Reduction of tumor weight” value ([1]; higher amounts of CCcompound1, day 27) was “about 45%”.
